Measured values from article PMC12566046, “Arylpiperazinyl-Benzocycloheptapyrrole-Carboxamides Endowed with Dual Anticancer and Antiviral Activities” (Molecules, 2025).
Like-named read-outs stand apart in the source and are kept apart here.

Assays:
[1] = Cytotoxicity on uninfected MDCK cells (WST-8, crystal violet); conditions: dog
[2] = tested on: ZIKV, strain Brazil/2016/INMI1; experiment: ZIKV viral yield reduction assay on Huh-7 cells; assay type: cell-based, Zika virus; conditions: Zika virus, Huh-7, read-out: ZIKV/Huh‐7 EC50
Protocol: We developed a protocol to screen the potential antiviral activity of compounds 1–20 against ZIKV (strain Brazil) on Huh-7 cells, against an H1N1 IAV strain (PR/8/1934) on MDCK cells, and against SARS-CoV-2 (strain Milano) on Vero-TMPRSS. Each compound was tested in duplicate at concentrations of 50 μM, 5 μM, and 0.5 μM. Treatment was applied immediately after infection, and at 24–48 h post-infection, supernatants were collected to assess viral yield, determined as PFU/mL for ZIKV and SARS-CoV-2 or as TCID50/mL for IAV. The test allowed us to evaluate both the antiviral action and the cytotoxicity of each compound, comparing them with reference compounds, such as sofosbuvir for ZIKV and EIDD-1931 for IAV and SARS-CoV-2 (Supplementary Materials, Figures S87–S89).
Viral yield reduction assays for ZIKV and SARS-CoV-2 were performed as previously described by Plicanti. Briefly, 1 × 10^4 Huh-7 cells/well and 1.2 × 10^4 VERO TMPRSS cells/well were infected with ZIKV (MOI 1) or SARS-CoV-2 (MOI 0.05) in a primary 96-well plate for 2 h at 37 °C, 5% CO2. […] Supernatants were collected after 48 h (Huh-7) or 24 h (VERO TMPRSS), diluted 3-fold, and added onto VERO E6 or VERO TMPRSS monolayers, respectively. After 2 h at 37 °C, the inoculum was replaced with 0.75% carboxymethyl cellulose (Merck®, Darmstadt, Germany) in DMEM 2% FBS. After 48–72 h, cells were then fixed with 4% buffered formalin solution (Merck®, Darmstadt, Germany) and stained with 1% crystal violet (Merck®, Darmstadt, Germany). Titres and percentage of inhibition were calculated as follows:
PFU/mL = number of plaques*3^n/vol infection, where n is the dilution where plaques were counted:% inhibition = 100 × (1 − Titre-compound/Titre-untreated control) where Titre-compound and Titre-untreated control are the titres (PFU/mL) obtained on cells treated with compound or DMSO, respectively.
SI was obtained by dividing CC50 by EC50 for each drug/virus/cell line. Compounds with SI values ≥ 10 were active in vitro.

[3] = tested on: NCI-60 cell line panel; experiment: NCI-60 single-dose assay, whole panel; assay type: cell-based, human; conditions: summary over the panel
From the text: (§1) We first evaluated the cytotoxic activity of tricyclic-pyrrole carboxamides 1–20 using the NCI-60 cell line panel, representing nine different human cancers: leukemia, melanoma, and cancers of the lung, colon, central nervous system (CNS), ovary, kidney, prostate, and breast (the one-dose graph for compounds 1–20 is reported in Supplementary Materials, Figures S43–S62). Compounds 1, 5, 10, 11, 17, and 20 satisfied pre-determined threshold inhibition criteria in a minimum number of cell lines; therefore, they were also tested in the full five-dose assay (Figures S63–S68 in the Supplementary Materials).

[4] = tested on: MDA-MB-435 (melanoma cell line); experiment: NCI-60 single-dose assay; assay type: cell-based, human; conditions: Homo sapiens, MDA-MB-435, read-out: growth inhibition (GI%) and cytotoxicity (negative values)
From the text: as §1

[5] = tested on: SK-MEL-2 (melanoma cell line); experiment: NCI-60 single-dose assay; assay type: cell-based, human; conditions: Homo sapiens, SK-MEL-2, read-out: growth inhibition (GI%) and cytotoxicity (negative values)
From the text: as §1

[6] = tested on: SK-MEL-5 (melanoma cell line); experiment: NCI-60 single-dose assay; assay type: cell-based, human; conditions: human
From the text: as §1

[7] = tested on: EKVX (non-small cell lung cancer cell line); experiment: NCI-60 single-dose assay; assay type: cell-based, human; conditions: Homo sapiens, read-out: growth inhibition (GI%) and cytotoxicity (negative values)
From the text: as §1

[8] = tested on: MDA-MB-468 (breast cancer cell line); experiment: NCI-60 single-dose assay; assay type: cell-based, human; conditions: Homo sapiens, MDA-MB-468, read-out: growth inhibition (GI%) and cytotoxicity (negative values)
From the text: as §1

[9] = tested on: M14 (melanoma cell line); experiment: NCI-60 single-dose assay; assay type: cell-based, human; conditions: Homo sapiens, M14, read-out: growth inhibition (GI%) and cytotoxicity (negative values)
From the text: as §1

[10] = tested on: UACC-62 (melanoma cell line); experiment: NCI-60 single-dose assay; assay type: cell-based, human; conditions: Homo sapiens, UACC-62, read-out: growth inhibition (GI%) and cytotoxicity (negative values)
From the text: as §1

[11] = tested on: T-47D (breast cancer cell line); experiment: NCI-60 single-dose assay; assay type: cell-based, human; conditions: Homo sapiens, T47D, read-out: growth inhibition (GI%) and cytotoxicity (negative values)
From the text: as §1

[12] = tested on: MCF-7 (breast cancer cell line); experiment: NCI-60 single-dose assay; assay type: cell-based, human; conditions: Homo sapiens, MCF7, read-out: growth inhibition (GI%) and cytotoxicity (negative values), MCF-7, 10^−5 M
From the text: as §1

[13] = tested on: UACC-257 (melanoma cell line); experiment: NCI-60 single-dose assay; assay type: cell-based, human; conditions: Homo sapiens, UACC-257, read-out: growth inhibition (GI%) and cytotoxicity (negative values)
From the text: as §1

[14] = tested on: MALME-3M (melanoma cell line); experiment: NCI-60 single-dose assay; assay type: cell-based, human; conditions: Homo sapiens, Malme-3M, read-out: growth inhibition (GI%) and cytotoxicity (negative values)
From the text: as §1

[15] = tested on: SK-MEL-28 (melanoma cell line); experiment: NCI-60 single-dose assay; assay type: cell-based, human; conditions: Homo sapiens, SK-MEL-28, read-out: growth inhibition (GI%) and cytotoxicity (negative values)
From the text: as §1

[16] = tested on: BT-549 (breast cancer cell line); experiment: NCI-60 single-dose assay; assay type: cell-based, human; conditions: Homo sapiens, BT-549, read-out: growth inhibition (GI%) and cytotoxicity (negative values)
From the text: as §1

[17] = tested on: MDA-MB-231/ATCC (breast cancer cell line); experiment: NCI-60 single-dose assay; assay type: cell-based, human; conditions: Homo sapiens, MDA-MB-231, read-out: growth inhibition (GI%) and cytotoxicity (negative values)
From the text: as §1

[18] = tested on: LOX IMVI (melanoma cell line); experiment: NCI-60 single-dose assay; assay type: cell-based, human; conditions: Homo sapiens, LOX IMVI, read-out: growth inhibition (GI%) and cytotoxicity (negative values)
From the text: as §1

[19] = in vitro; conditions: dog
[20] = Cytotoxicity on uninfected Huh-7 cells (WST-8, crystal violet); conditions: human, uninfected Huh-7 cells
Protocol: The toxicity of the compounds at the same concentration was tested on the same cells in parallel.
Cytotoxic effects were evaluated on uninfected cells using the WST-8 assay (Orangu, Cell Guidance Systems, Cambridge, UK) and the crystal violet assay [23]. […] Huh-7, MDCK, and Vero TMPRSS cells were seeded at 1 × 10^4, 1.5 × 10^4, and 1.2 × 10^4 cells/well, respectively, and incubated for 48 h (Huh-7 and MDCK) or 24 h (VERO TMPRSS), following conditions matching those of the corresponding antiviral assays in terms of timing and culture medium. At the end of incubation, the medium was replaced with a 10% WST-8 solution in DMEM and incubated for 1 h at 37 °C. Optical density (OD) was then measured at 450 nm using a Varioskan LUX plate reader (ThermoFisher Scientific, Milano, Italy). Subsequently, cells were fixed with 4% buffered formalin solution (Merck®, Darmstadt, Germany), stained with 1% crystal violet (Merck®, Darmstadt, Germany), and the dye was solubilized in 30% acetic acid for 30 min under shaking. OD was then measured at 595 nm as an additional readout of cell viability. The percentage of viability at each concentration was calculated using the formula:% viability = 100 × (ODcompound/ODuntreated control) where ODcompound and ODuntreated are the OD of the cells treated with compound or DMSO, respectively.
The CC50 value was determined by nonlinear regression analysis on GraphPad Prism 7 (San Diego, CA, USA).

[21] = tested on: IAV strain A/PR/8/34 (H1N1)
[22] = tested on: IAV strain A/PR/8/34 (H1N1); experiment: microbe, parasite or virus in culture; conditions: Influenza A virus, MDCK
[23] = in vitro; conditions: African green monkey

O=C(NCCN1CCN(c2ccc(Cl)c(Cl)c2)CC1)c1c(Cl)[nH]c2c1CCCc1ccccc1-2 [Compound 19]
CC50 at 48 h [1]: 92.1 µM
EC50 [2]: 4.08 µM
growth inhibition (GI%) reached against cancer cell lines of the NCI-60 panel [3]: > 90%
inhibition at 10 µM [4]: < 60%
inhibition at 10 µM [5]: < 60%
growth inhibition (GI%) and cytotoxicity (negative values) [6]: −24.28%
inhibition at 10 µM [7]: 61.7%
inhibition at 10 µM [8]: 94.2%
inhibition at 10 µM [9]: < 60%
inhibition at 10 µM [10]: < 60%
inhibition at 10 µM [11]: < 60%
inhibition at 10 µM [12]: < 60%
inhibition at 10 µM [13]: < 60%
inhibition at 10 µM [14]: < 60%
inhibition at 10 µM [15]: < 60%
inhibition at 10 µM [16]: < 60%
inhibition at 10 µM [17]: < 60%
inhibition at 10 µM [18]: < 60%
CC50 [19]: < 50 µM
CC50 at 48 h [20]: 12 µM
selectivity index (SI) ([21]; IAV, MDCK cells, CC50/EC50): 21.36
IAV/MDCK SI ([21]; preliminary screening): < 12.17
EC50 ([22]; 48 h): 4.31 µM
EC50 ([22]; read-out: IAV/MDCK EC50): 4.11 µM
CC50 at 24 h [23]: 40.8 µM
